Where two headings read alike, the source gives them in different places.
How the values were obtained:
[1] = molecular target: T1, OCT1 (Homo sapiens, UniProt O15245); assay: Stereoselective uptake into OCT1-overexpressing HEK293 cells; details: for Clint ± SEM: quotient of vmax over Km; for selectivity ratio at 2 min: human;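 as to all read-outs here: enantiomers quantified inside cells by chiral HPLC-MS/MS, uptake normalized to total protein from bicinchoninic acid assay, substrates applied in HBSS+ buffer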
T1 sequence (O15245 1-554): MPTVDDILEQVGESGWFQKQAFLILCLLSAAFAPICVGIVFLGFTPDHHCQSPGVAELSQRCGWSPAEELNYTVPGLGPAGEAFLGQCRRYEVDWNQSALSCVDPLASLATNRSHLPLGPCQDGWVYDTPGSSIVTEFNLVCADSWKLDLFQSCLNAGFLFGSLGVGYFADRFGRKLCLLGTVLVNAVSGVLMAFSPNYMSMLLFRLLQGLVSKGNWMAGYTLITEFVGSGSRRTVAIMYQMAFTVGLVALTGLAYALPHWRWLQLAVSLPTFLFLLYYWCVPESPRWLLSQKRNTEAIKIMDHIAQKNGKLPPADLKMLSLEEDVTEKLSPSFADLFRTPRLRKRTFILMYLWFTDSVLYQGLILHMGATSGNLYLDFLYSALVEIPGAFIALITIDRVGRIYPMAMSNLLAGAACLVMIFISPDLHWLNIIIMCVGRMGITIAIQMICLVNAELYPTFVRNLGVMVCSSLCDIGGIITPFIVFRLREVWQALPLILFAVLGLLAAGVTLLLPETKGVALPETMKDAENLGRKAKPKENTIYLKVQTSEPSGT
Description: (§1) All transport experiments were carried out in HEK293 cells stably overexpressing human MATs or OCTs. […] All cells were regularly cultivated in DMEM supplemented with 10% (v/v) FCS, penicillin (100 U/mL) and streptomycin (100 μg/mL)and kept in culture for no longer than 30 passages.
(§2) For the uptake experiments, 300,000 cells were plated in poly-D-lysine precoated 24-well plates 48 h ahead of the transport experiment. On the day of experiment, cells were initially washed once with 37 °C pre-warmed HBSS+ (Hanks buffered salt solution supplemented with 10 mM HEPES) and subsequently incubated with the substrates dissolved in pre-warmed HBSS+ for exactly two minutes. Incubation was stopped by adding ice-cold HBSS+ followed by two washing steps. After this, cells were lysed with 80% acetonitrile containing 10 ng/mL milnacipran as internal standard for high-performance liquid chromatography coupled to tandem mass spectrometry (HPLC-MS/MS) analysis. For every experiment, two additional wells per cell line were lysed using RIPA buffer for protein quantification. Total protein was quantified using the bicinchoninic acid assay [42]. This was later used for normalization of the uptake data.
(§3) Intracellularly accumulated test substances were quantified by HPLC-MS/MS analysis using a Shimadzu Nexera HPLC system with a SIL-30AC autosampler, a CTO-20AC column oven, a LC-30AD pump, and a CBM-20A controller (Shimadzu, Kyoto, Japan). Stereoselective chromatography was carried out on a [sequence] CBH HPLC column (100 × 3 mm inner dimension with 5 μM particle size; Sigma-Aldrich, Darmstadt, Germany) with a corresponding 10 × 3 mm guard column. Reversed phased chromatography was carried out using an ammonium acetate (NH4Ac) buffered aqueous mobile phase with isopropyl alcohol (IPA) as organic solvent. […] The order of elution of the enantiomers was obtained from available reference literature [43] or by applying enantiopure reference compounds to the chiral HPLC. […] Given the structural similarity of the investigated substances and the fact that separation was performed on the same column with almost identical mobile phases, we assume that this order of elution for our compound set is always the (R)- before the (S)-enantiomer.
(§4) Detection was performed with an API 4000 tandem mass spectrometer (AB SCIEX, Darmstadt, Germany) operating in multiple-reaction-monitoring mode. Quantification was performed using the Analyst 1.6.2 software (AB SCIEX, Darmstadt, Germany) and quantified by comparison to standard curves with known concentrations.
(§5) All uptake data were normalized to protein content to account for variation in the number of seeded sells. Transporter-mediated net uptake was calculated by subtracting uptake into empty vector-transfected control cells from uptake into transporter-transfected cells. Kinetic parameters were then determined after non-linear regression following the Michaelis–Menten equation (v = vmax × [S]/(Km + [S])) using GraphPad Prism (Version 5.01 for Windows, GraphPad Software, La Jolla, CA, USA). Vmax refers to the maximum transport velocity and Km is defined as the substance concentration required to reach half of vmax. The intrinsic clearance Clint was calculated as the quotient of vmax over Km.

[2] = test system: OCT2 A270S variant; assay: Stereoselective uptake into OCT2 A270S variant-overexpressing HEK293 cells; details: 100 μM racemic substance, two minutes;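 also: uptake into HEK293 cells stably overexpressing human OCT2 variants, intracellular enantiomers quantified by chiral HPLC-MS/MS and normalized to total protein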
Description: as §1, §2
(§6) Intracellularly accumulated test substances were quantified by HPLC-MS/MS analysis using a Shimadzu Nexera HPLC system with a SIL-30AC autosampler, a CTO-20AC column oven, a LC-30AD pump, and a CBM-20A controller (Shimadzu, Kyoto, Japan). Stereoselective chromatography was carried out on a [sequence] CBH HPLC column (100 × 3 mm inner dimension with 5 μM particle size; Sigma-Aldrich, Darmstadt, Germany) with a corresponding 10 × 3 mm guard column. Reversed phased chromatography was carried out using an ammonium acetate (NH4Ac) buffered aqueous mobile phase with isopropyl alcohol (IPA) as organic solvent. […] The order of elution of the enantiomers was obtained from available reference literature [43] or by applying enantiopure reference compounds to the chiral HPLC. […] However, in every other case where the order of elution was available, the (R)-enantiomer eluted first. Given the structural similarity of the investigated substances and the fact that separation was performed on the same column with almost identical mobile phases, we assume that this order of elution for our compound set is always the (R)- before the (S)-enantiomer.
as §4, §5
(§7) HEK293 cells stably overexpressing wild-type or mutant OCT2 were incubated with 100 μM racemic substance for two minutes.

[3] = molecular target: T2, OCT3 (Homo sapiens, UniProt O75751); assay: Stereoselective uptake into OCT3-overexpressing HEK293 cells; details: for Clint ± SEM / Stereoselectivity Vmax / Stereoselectivity Km: OCT3; for Clint ± SEM: quotient of vmax over Km; for Stereoselectivity Vmax / Stereoselectivity Km: ratio between enantiomers; for Stereoselectivity Vmax: given as for (R) or for 1; for Stereoselectivity Km: given as for (R) or for 1 (first-eluting); for selectivity ratio at 2 min: human;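 as to all read-outs here: intracellular accumulation in HEK293 cells measured by chiral HPLC-MS/MS after a 2 min substrate exposure at 37 °C, uptake normalized to total protein (bicinchoninic acid assay)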
T2 sequence (O75751 1-556): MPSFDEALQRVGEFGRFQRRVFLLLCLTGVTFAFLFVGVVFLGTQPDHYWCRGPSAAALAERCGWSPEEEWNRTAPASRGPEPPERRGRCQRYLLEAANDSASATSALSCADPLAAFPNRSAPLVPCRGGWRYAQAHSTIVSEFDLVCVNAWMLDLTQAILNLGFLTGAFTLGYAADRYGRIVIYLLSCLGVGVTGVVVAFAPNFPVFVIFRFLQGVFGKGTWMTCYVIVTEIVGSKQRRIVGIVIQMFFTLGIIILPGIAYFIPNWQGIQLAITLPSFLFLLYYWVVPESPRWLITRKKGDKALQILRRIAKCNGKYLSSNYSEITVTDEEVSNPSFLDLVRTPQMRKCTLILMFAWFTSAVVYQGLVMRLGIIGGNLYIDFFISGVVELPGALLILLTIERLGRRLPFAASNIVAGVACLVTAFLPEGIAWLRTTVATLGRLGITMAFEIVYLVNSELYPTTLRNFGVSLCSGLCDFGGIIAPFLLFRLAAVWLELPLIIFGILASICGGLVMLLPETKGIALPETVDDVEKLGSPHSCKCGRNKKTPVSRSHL

[4] = molecular target: T3, SERT (Homo sapiens, UniProt P31645); assay: in vitro;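 also: uptake into HEK293 cells stably expressing human SERT over 2 min, enantiomers measured in cell lysate by chiral HPLC-MS/MS, normalized to total protein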
T3 sequence (P31645 whole entry): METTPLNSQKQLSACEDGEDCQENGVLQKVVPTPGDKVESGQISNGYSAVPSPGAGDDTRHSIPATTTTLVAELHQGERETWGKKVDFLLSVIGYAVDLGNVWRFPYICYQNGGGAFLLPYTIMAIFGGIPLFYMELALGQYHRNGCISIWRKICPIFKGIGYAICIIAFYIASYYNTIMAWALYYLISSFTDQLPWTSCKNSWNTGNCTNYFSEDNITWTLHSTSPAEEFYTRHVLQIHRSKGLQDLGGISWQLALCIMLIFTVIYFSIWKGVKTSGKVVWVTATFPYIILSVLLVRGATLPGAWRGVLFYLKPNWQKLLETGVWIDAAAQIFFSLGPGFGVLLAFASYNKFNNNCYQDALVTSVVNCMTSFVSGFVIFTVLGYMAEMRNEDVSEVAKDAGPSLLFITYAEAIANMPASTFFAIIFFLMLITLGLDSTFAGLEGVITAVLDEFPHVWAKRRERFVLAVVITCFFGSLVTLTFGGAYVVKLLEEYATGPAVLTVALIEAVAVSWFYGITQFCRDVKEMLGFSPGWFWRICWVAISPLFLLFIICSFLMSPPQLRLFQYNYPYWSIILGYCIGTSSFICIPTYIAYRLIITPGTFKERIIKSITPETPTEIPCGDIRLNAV

[5] = molecular target: DAT (Homo sapiens, UniProt Q01959); assay: Stereoselective uptake into DAT-overexpressing HEK293 cells; details: for Saturable net uptake / Clint ± SEM / Stereoselectivity Vmax / Stereoselectivity Km: DAT; for Saturable net uptake: result in words; for Clint ± SEM: quotient of vmax over Km; for Stereoselectivity Vmax / Stereoselectivity Km: ratio between enantiomers; for Stereoselectivity Vmax: given as for (R) or for 1; for Stereoselectivity Km: given as for (S) or for 2 (second-eluting); for selectivity ratio at 2 min: human;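 as to all read-outs here: intracellular accumulation measured by chiral HPLC-MS/MS in stably transfected HEK293 cells, normalized to total protein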
DAT, sequence (Q01959 whole entry): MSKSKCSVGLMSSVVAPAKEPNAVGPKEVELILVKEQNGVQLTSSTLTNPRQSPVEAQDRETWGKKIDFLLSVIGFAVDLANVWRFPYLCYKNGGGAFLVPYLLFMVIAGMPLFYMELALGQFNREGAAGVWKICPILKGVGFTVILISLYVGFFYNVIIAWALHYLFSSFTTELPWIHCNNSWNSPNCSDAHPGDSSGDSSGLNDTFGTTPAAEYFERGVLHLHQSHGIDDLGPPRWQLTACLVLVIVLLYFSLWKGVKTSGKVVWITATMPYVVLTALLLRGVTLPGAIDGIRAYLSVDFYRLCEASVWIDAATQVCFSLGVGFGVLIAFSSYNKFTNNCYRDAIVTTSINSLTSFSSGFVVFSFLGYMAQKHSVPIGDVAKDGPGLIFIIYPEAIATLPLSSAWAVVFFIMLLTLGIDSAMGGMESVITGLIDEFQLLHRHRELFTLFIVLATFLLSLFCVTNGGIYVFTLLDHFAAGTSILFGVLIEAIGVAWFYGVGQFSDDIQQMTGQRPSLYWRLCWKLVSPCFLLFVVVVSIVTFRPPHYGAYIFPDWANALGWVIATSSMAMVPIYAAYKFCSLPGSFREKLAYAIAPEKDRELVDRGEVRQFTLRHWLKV
Description: as §1, §2, §3, §4, §5

[6] = test system: OCT2 wild-type versus A270S variant; assay: in vitro; details: human, Transporter selectivity, OCT2 wild-type versus A270S, 100 μM racemic substance, two minutes
Description: as §1, §2, §6, §4, §5, §7

[7] = molecular target: NET (Homo sapiens, UniProt P23975); assay: Stereoselective uptake into NET-overexpressing HEK293 cells; details: for Clint ± SEM: quotient of vmax over Km; for Stereoselectivity Vmax / Stereoselectivity Km: ratio between enantiomers; for Stereoselectivity Vmax: given as for (R) or for 1; for selectivity ratio at 2 min: human;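 as to all read-outs here: intracellular enantiomers quantified in cell lysates by chiral HPLC-MS/MS after a 2 min substrate incubation, with uptake normalized to total cellular protein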
NET, sequence (P23975 whole entry): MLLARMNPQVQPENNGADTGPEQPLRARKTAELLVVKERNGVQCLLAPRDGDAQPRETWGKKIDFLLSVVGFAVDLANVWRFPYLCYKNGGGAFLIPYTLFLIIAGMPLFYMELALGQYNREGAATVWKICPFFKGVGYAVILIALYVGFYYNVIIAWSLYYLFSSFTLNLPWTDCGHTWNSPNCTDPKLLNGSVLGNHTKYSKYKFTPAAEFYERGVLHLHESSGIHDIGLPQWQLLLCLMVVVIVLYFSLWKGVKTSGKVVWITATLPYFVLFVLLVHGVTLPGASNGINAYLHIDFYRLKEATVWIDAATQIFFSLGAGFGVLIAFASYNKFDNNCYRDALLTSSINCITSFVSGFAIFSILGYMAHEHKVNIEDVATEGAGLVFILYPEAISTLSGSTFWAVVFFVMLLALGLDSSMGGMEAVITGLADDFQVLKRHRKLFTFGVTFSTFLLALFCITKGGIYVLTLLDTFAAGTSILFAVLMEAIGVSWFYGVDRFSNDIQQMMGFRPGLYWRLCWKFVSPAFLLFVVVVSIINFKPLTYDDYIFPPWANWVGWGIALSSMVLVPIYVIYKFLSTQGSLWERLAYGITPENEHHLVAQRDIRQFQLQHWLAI
Description: as §1, §2, §3, §4, §5

[8] = molecular target: T3, SERT; assay: Stereoselective uptake into SERT-overexpressing HEK293 cells; details: for Clint ± SEM: quotient of vmax over Km;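 as to all read-outs here: uptake into HEK293 cells stably expressing human SERT over 2 min, enantiomers measured in cell lysate by chiral HPLC-MS/MS, normalized to total protein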
[9] = molecular target: T4, OCT2 (Homo sapiens, UniProt O15244); assay: Stereoselective uptake into OCT2 (wild-type)-overexpressing HEK293 cells; details: for Clint ± SEM / selectivity ratio at 2 min: OCT2; for Clint ± SEM: quotient of vmax over Km; for selectivity ratio at 2 min: human, ratio between enantiomers
T4 sequence (O15244 1-555 S270A): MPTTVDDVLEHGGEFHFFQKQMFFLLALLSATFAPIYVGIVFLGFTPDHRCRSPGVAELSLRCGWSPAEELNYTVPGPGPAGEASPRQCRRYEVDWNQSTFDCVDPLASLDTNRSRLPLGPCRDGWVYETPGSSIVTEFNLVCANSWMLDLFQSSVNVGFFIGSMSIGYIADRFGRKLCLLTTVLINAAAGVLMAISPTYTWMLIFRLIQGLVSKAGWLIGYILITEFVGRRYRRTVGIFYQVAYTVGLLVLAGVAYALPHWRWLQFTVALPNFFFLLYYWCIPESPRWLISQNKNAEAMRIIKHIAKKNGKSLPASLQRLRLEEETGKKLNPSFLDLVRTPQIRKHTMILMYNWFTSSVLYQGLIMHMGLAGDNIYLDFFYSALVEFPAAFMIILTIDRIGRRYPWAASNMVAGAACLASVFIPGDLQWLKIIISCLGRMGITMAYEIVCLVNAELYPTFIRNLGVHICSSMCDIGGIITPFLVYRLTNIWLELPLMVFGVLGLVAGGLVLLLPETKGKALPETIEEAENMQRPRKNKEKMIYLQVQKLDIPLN
Description: as §1, §2, §6, §4, §5, §7

[10] = molecular target: T5, OCT2 (Homo sapiens, UniProt O15244, S270A); assay: as above; details: OCT2, ratio between enantiomers
T5 sequence (O15244 1-555 S270A): T4 sequence (O15244 1-555 S270A)
Description: as §1, §2, §6, §4, §5, §7

[11] = Stereoselectivity Km, OCT1, ratio between enantiomers, given as for (S) or for 2 (second-eluting)
[12] = Stereoselectivity Vmax, OCT1, ratio between enantiomers, given as for (R) or for 1
[13] = Stereoselectivity Vmax, given as for (R) or for 1
[14] = SERT, ratio between enantiomers, given as for (S) or for 2
[15] = Stereoselectivity ClInt, OCT1, ratio between enantiomers, given as for (R) or for 1 (also 1.00-fold for 1/2)
[16] = NET, given as for (S) or for 2 (second-eluting)
[17] = SERT, ratio between enantiomers, given as for (S) or for 2 (second-eluting)
[18] = Stereoselectivity ClInt, given as for (S) or for 2
[19] = Stereoselectivity Km, given as for (R) or for 1 (first-eluting)

Row | Compound | Clint ± SEM ([1]; OCT1) | selectivity ratio at 2 min [1, 11] | selectivity ratio at 2 min [1, 12] | Clint ± SEM [3] | Stereoselectivity Vmax [3] [fold] | Stereoselectivity Km [3] [fold] | selectivity ratio at 2 min [3] | selectivity ratio [4] | Saturable net uptake [5] | Clint ± SEM ([8]; SERT) | Clint ± SEM [9] | selectivity ratio at 2 min [9, 13] | selectivity ratio at 2 min, 100 μM ([6]; given as for WT) | Clint ± SEM ([7]; NET) | Stereoselectivity Vmax ([7]; NET) [fold] | selectivity ratio at 2 min [7] | Stereoselectivity Vmax [8, 14] [fold] | selectivity ratio at 2 min [1, 15] | Clint ± SEM [5] | Stereoselectivity Vmax [5] [fold] | further results
1 | CNCC(O)c1ccc(O)c(OC)c1 (single isomer, unassigned) [Metanephrine-1, Metanephrine] | 8.09 mL × g Protein^−1 × min^−1 | 1.09 | 1.06 | 25.9 mL × g Protein^−1 × min^−1 | 1.19 | 1.19 | 1 | 1.01 | No saturable net uptake | 0.58 mL × g Protein^−1 × min^−1 | 20.6 mL × g Protein^−1 × min^−1 | 2.13 |  |  |  |  |  |  |  |  | Vmax ± SEM ([1]; HEK293 cells overexpressing human OCT1, racemic substrate, two minutes, net uptake): 1082 pmol × mg Protein^−1 × min^−1; selectivity ratio at 2 min ([1]; Stereoselectivity ClInt): 1.16; Net uptake by A270S variant in comparison to the wild-type [2]: 120%; selectivity ratio at 2 min, 100 μM ([6]; given as for A270S): 1.2; Saturable net uptake ([7]; NET, result in words): No saturable net uptake; Stereoselectivity Km [8]: 1.09 fold; Stereoselectivity Vmax [8]: 1.08 fold; Vmax ± SEM ([9]; HEK293 cells overexpressing human OCT2, racemic substrate, two minutes, net uptake): 1127 pmol × mg Protein^−1 × min^−1; selectivity ratio at 2 min ([9]; Stereoselectivity ClInt, given as for (R) or for 1): 2.66; selectivity ratio at 2 min ([9]; Stereoselectivity Km, given as for (S) or for 2 (second-eluting)): 1.25
2 | COc1cc(C(O)CN)ccc1O (single isomer, unassigned) [Normetanephrine-1, Normetanephrine] | 2.46 mL × g Protein^−1 × min^−1 |  |  | 19.4 mL × g Protein^−1 × min^−1 | 1.09 | 1.22 | 1.12 | 1.28 | No saturable net uptake | 2.23 mL × g Protein^−1 × min^−1 | 9.24 mL × g Protein^−1 × min^−1 |  | 1.21 | 2.71 mL × g Protein^−1 × min^−1 | 1.06 | 1.28 | 1.67 |  |  |  | Stereoselectivity Vmax ([1]; OCT1, ratio between enantiomers, given as for (R) or for 1): 1.47 fold; Stereoselectivity Km ([1]; OCT1, ratio between enantiomers, given as for (R) or for 1 (first-eluting)): 1.59 fold; Stereoselectivity ClInt ([1]; OCT1, ratio between enantiomers, given as for (S) or for 2): 1.08 fold; Stereoselectivity Km ([7]; NET, given as for (R) or for 1 (first-eluting)): 1.35 fold; Stereoselectivity Km ([8]; SERT, ratio between enantiomers, given as for (R) or for 1 (first-eluting)): 1.08 fold; Stereoselectivity ClInt ([10]; given as for (R) or for 1): 1.56 fold; Stereoselectivity Km ([10]; given as for (R) or for 1 (first-eluting)): 1.32 fold; Stereoselectivity Vmax ([10]; given as for (S) or for 2): 2.06 fold
3 | CNC[C@H](O)c1ccc(O)cc1 [(R)-Synephrine] | 21.0 mL × g Protein^−1 × min^−1 | 1.28 | 1.35 | 26.3 mL × g Protein^−1 × min^−1 | 1.05 | 1.11 | 1.06 | 1.13 |  | 0.69 mL × g Protein^−1 × min^−1 | 24.6 mL × g Protein^−1 × min^−1 | 2.05 | 1.41 | 37.3 mL × g Protein^−1 × min^−1 | 1.80 | 4.7 | 1.35 | 1.73 | 23.1 mL × g Protein^−1 × min^−1 | 1.84 | Stereoselectivity Km [5]: 1.21 fold; selectivity ratio at 2 min [5]: 2.23; Stereoselectivity Km [7, 16]: 2.61 fold; Stereoselectivity Km [8, 17]: 1.52 fold; selectivity ratio at 2 min [9, 18]: 1.01; selectivity ratio at 2 min [9, 19]: 2.07
4 | CNC[C@@H](O)c1ccc(O)cc1 [(S)-Synephrine] | 12.1 mL × g Protein^−1 × min^−1 | 1.28 | 1.35 | 27.8 mL × g Protein^−1 × min^−1 | 1.05 | 1.11 | 1.06 | 1.13 |  | 0.61 mL × g Protein^−1 × min^−1 | 24.8 mL × g Protein^−1 × min^−1 | 2.05 | 1.2 | 7.92 mL × g Protein^−1 × min^−1 | 1.80 | 4.7 | 1.35 | 1.73 | 10.4 mL × g Protein^−1 × min^−1 | 1.84 | Stereoselectivity Km [5]: 1.21 fold; selectivity ratio at 2 min [5]: 2.23; Stereoselectivity Km [7, 16]: 2.61 fold; Stereoselectivity Km [8, 17]: 1.52 fold; selectivity ratio at 2 min [9, 18]: 1.01; selectivity ratio at 2 min [9, 19]: 2.07
